Data published in ChEMBL document CHEMBL3351862, “Coumarin hybrids as novel therapeutic agents” (Bioorg Med Chem, 2014).
≈ marks a conversion by molar mass, not a printed value.

Key:
Staphylococcus aureus = experiment: Antimicrobial activity against methicillin-resistant Staphylococcus aureus; type: functional
[1] = system: Human immunodeficiency virus; experiment: Antiviral activity against Human immunodeficiency virus; type: functional, organism-based; settings: Human immunodeficiency virus 1
[2] = system: Human immunodeficiency virus 1; experiment: Antiviral activity against Human immunodeficiency virus 1 3B; type: functional, organism-based
[3] = system: Human immunodeficiency virus 1; experiment: Antiviral activity against Human immunodeficiency virus 1 harboring reverse transcriptase K103N/Y181C double mutant; type: functional, organism-based
[4] = system: Human immunodeficiency virus 2; experiment: Antiviral activity against Human immunodeficiency virus 2 ROD; type: functional, organism-based; settings: Human immunodeficiency virus 2, ISOLATE ROD
SK-OV-3 = experiment: Growth inhibition of human SKOV3 cells at 50 uM; type: functional; settings: read-out: GI
[5] = molecular target: Proto-oncogene tyrosine-protein kinase Src (Homo sapiens, UniProt P12931); experiment: Inhibition of Src kinase (unknown origin)
CCRF-CEM = experiment: Growth inhibition of human CCRF-CEM cells at 50 uM; type: functional; settings: read-out: GI
MCF7 = experiment: Growth inhibition of human MCF7 cells at 50 uM; type: functional; settings: read-out: GI
Acetylcholinesterase = Acetylcholinesterase (Homo sapiens, UniProt P22303); experiment: Inhibition of AChE (unknown origin)
Cholinesterase [6] = molecular target: T1, Cholinesterase (Homo sapiens, UniProt P06276); experiment: Inhibition of BuChE (unknown origin)
Cholinesterase [7] = molecular target: T1, Cholinesterase; experiment: Ratio of galamthamine IC50 to compound IC50 for BuChE (unknown origin)
KB = experiment: Anticancer activity against human KB cells; type: functional, cell-based
Platelet = experiment: Inhibition of platelet (unknown origin) aggregation; type: functional, cell-based

T1 sequence (P06276 whole entry): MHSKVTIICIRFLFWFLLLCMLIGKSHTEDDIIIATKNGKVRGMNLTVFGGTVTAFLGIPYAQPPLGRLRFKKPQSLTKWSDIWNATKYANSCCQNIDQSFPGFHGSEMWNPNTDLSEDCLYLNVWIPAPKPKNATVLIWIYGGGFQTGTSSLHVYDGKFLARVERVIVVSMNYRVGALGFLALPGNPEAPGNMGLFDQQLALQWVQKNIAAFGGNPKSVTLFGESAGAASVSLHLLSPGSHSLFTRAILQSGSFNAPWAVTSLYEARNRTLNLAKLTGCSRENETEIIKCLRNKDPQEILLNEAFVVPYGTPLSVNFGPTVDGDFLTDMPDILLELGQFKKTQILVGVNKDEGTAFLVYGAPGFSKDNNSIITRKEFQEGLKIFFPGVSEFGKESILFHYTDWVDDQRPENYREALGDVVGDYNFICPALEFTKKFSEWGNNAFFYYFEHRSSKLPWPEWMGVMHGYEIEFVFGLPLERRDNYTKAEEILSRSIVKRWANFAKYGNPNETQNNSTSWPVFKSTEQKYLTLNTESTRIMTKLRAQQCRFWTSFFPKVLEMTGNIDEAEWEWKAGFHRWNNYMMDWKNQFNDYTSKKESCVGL
Chain of Acetylcholinesterase (P22303 whole entry): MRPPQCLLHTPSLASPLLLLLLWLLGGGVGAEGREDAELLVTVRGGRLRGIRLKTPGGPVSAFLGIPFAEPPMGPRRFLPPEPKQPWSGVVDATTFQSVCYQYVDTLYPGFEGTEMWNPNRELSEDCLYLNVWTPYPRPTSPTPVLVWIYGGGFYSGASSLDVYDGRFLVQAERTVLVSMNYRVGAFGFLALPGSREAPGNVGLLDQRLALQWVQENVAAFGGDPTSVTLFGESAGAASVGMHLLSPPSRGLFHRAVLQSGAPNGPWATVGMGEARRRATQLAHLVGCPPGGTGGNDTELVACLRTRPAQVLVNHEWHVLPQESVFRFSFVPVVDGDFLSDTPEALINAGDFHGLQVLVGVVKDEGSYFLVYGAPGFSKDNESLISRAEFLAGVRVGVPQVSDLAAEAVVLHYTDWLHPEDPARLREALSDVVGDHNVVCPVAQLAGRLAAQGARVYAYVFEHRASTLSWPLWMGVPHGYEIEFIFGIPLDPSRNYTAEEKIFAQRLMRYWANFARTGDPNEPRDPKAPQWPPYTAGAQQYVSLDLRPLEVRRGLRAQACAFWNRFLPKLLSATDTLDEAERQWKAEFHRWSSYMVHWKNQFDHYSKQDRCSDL
Chain of Proto-oncogene tyrosine-protein kinase Src (P12931 2-536 limits assumed): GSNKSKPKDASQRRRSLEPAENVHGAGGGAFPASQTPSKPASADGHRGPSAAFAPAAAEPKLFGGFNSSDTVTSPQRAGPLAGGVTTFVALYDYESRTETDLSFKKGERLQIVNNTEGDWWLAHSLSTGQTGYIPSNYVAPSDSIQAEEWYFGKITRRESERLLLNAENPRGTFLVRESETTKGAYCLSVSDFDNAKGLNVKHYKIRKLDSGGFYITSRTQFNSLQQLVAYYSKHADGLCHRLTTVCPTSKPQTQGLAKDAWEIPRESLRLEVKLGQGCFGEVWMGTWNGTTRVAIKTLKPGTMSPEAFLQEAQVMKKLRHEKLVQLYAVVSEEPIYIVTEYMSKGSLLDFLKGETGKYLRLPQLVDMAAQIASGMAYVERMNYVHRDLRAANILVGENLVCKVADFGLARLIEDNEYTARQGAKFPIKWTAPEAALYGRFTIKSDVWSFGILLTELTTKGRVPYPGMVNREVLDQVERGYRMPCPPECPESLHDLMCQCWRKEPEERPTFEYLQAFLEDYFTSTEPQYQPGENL

In the case of Cc1cc(=O)oc2cc(OCc3cn(Cc4cc(=O)oc5ccc(Cl)cc45)nn3)ccc12, the MIC (Staphylococcus aureus) is reported as 6.25 µg/mL (≈ 13.9 µM).
O=c1oc2ccccc2cc1CSc1nc2ccccc2o1 showed an EC50 [1] of 12 µM.
For CCOC(=O)CNc1nc(Nc2ccc(C)cc2)nc(OCc2cc3ccccc3oc2=O)n1, the IC50 [2] was 1 µg/mL (≈ 2.17 µM), the IC50 [3] was 1 µg/mL (≈ 2.17 µM) and the IC50 [4] was 1 µg/mL (≈ 2.17 µM).
With COc1ccc(/C=C/C(=O)c2c(O)ccc3c(C)cc(=O)oc23)cc1O the inhibition of growth at 50 µM (SK-OV-3) was 63%, the IC50 [5] was 14.5 µM and the inhibition of growth at 50 µM (CCRF-CEM) was 50%. For the same molecule, the inhibition of growth at 50 µM (MCF7) was 43%.
Work on Cc1cc(=O)oc2cc(OCCN3CCN(CC(=O)Nc4c5c(nc6ccccc46)CCCC5)CC3)ccc12 yielded an IC50 (Acetylcholinesterase) of 0.092 µM.
O=c1oc2ccccc2c(O)c1-c1csc(Nc2cccc([N+](=O)[O-])c2)n1 was tested, and the MIC (Staphylococcus aureus) was 31.2 µg/mL (≈ 81.9 µM).
Work on Cc1cc(=O)oc2cc(OCCCCCCCN3CCN(CC(=O)Nc4c5c(nc6ccccc46)CCCC5)CC3)ccc12 yielded an IC50 (Cholinesterase [6]) of 0.099 µM and a Ratio IC50 (Cholinesterase [7]) of 128.
For O=c1oc2ccccc2cc1CSc1nc2cncnc2[nH]1, the EC50 [1] was 2 µM.
COc1cc(OC)cc(-c2cc3ccc(OC(C)=O)c(OC(C)=O)c3oc2=O)c1 showed an IC50 (KB) of 5180 µM.
O=c1oc2ccccc2cc1CSc1nc2cccnc2[nH]1 gave an EC50 [1] of 6.8 µM.
Molecule O=c1oc2ccc(O)cc2cc1-c1cc(O)cc(O)c1 has an IC50 (Platelet) of 10.6 µM.
